Patent publication US20150105252A1, “SUBSTITUTED PYRAZOLES AS HERBICIDES” (E I DU PONT DE NEMOURS AND COMPANY, priority 2013, published 2015)

Key:
Test in all cases: Test C postemergence
barnyardgrass = assay type: in vivo, Echinochloa crus-galli; details: for Plant response rating (scale of 0 to 100 where 0 is no effect and 100 is complete control), Barnyardgrass: Postemergence, 31 g ai/ha, visually evaluated after 13 to 15 days; for Barnyardgrass plant response rating / Plant response rating, Barnyardgrass: postemergence; for Barnyardgrass plant response rating: 62 g ai/ha, scale 0 to 100
Excerpt: (§1) Seeds of plant species selected from blackgrass (Alopecurus myosuroides), ryegrass, Italian (Italian ryegrass, Lolium multiflorum), wheat (winter wheat, Triticum aestivum), galium (catchweed bedstraw, Galium aparine), corn (Zea mays), crabgrass, large (large crabgrass, Digitaria sanguinalis), foxtail, giant (giant foxtail, Setaria faberii), johnsongrass (Sorghum halepense), lambsquarters (Chenopodium album), morningglory (Ipomoea coccinea), nutsedge, yellow (yellow nutsedge, Cyperus esculentus), pigweed (redroot pigweed, Amaranthus retroflexus), ragweed (common ragweed, Ambrosia elation), soybean (Glycine max), barnyardgrass (Echinochloa crus-galli), oilseed rape (Brassica napus), waterhemp (common waterhemp, Amaranthus rudis), oat, wild (wild oat, Avena fatua), kochia (Kochia scoparia), Surinam grass (Brachiaria decumbens), foxtail, green (green foxtail, Setaria viridis), goosegrass (Eleusine indica), bromegrass, downy (downy bromegrass, Bromus tectorum), nightshade (eastern black nightshade, Solanum ptycanthum), cocklebur (common cocklebur, Xanthium strumarium), cupgrass, woolly (woolly cupgrass, Eriochloa villosa), bermudagrass (Cynodon dactylon), sunflower, (common oilseed sunflower, Helianthus annuus), Russian thistle (Salsola kali), and velvetleaf (Abutilon theophrasti) were planted into a blend of loam soil and sand and treated preemergence with test chemicals formulated in a non-phytotoxic solvent mixture which included a surfactant.
(§2) At the same time, plants selected from these crop and weed species and also chickweed (common chickweed, Stellaria media), canarygrass (littleseed canarygrass, Phalaris minor), and deadnettle (henbit deadnettle, Lamium amplexicaule), were planted in pots containing Redi-Earth® planting medium (Scotts Company, 14111 Scottslawn Road, Marysville, Ohio 43041) comprising spaghnum peat moss, vermiculite, wetting agent and starter nutrients and treated with postemergence applications of test chemicals formulated in the same manner. Plants ranged in height from 2 to 18 cm (1- to 4-leaf stage) for postemergence treatments. Treated plants and controls were maintained in a greenhouse for 13 to 15 days, after which time all species were compared to controls and visually evaluated. Plant response ratings, summarized in Table C, are based on a scale of 0 to 100 where 0 is no effect and 100 is complete control. A dash (-) response means no test result.

ryegrass, Italian = assay type: in vivo, Lolium multiflorum; details: postemergence
Summary of the method: (§3)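 Seeds were sown in a loam soil–sand blend and sprayed preemergence with compounds formulated in a non-phytotoxic solvent mixture containing surfactant. Postemergence plants, grown in peat/vermiculite medium to 2–18 cm (1- to 4-leaf stage), received the same formulation. After 13 to 15 days in a greenhouse, injury was rated visually against controls (0 = no effect, 100 = complete control).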

kochia = assay type: in vivo, Kochia scoparia; details: for Plant response rating (scale of 0 to 100 where 0 is no effect and 100 is complete control), Kochia: Postemergence, 31 g ai/ha, visually evaluated after 13 to 15 days; for Kochia plant response rating / Plant response rating, Kochia: postemergence; for Kochia plant response rating: 62 g ai/ha, scale 0 to 100
Summary of the method: as §3

waterhemp = assay type: in vivo, Amaranthus rudis; details: postemergence, 250 g ai/ha; scale 0 to 100 (0 no effect, 100 complete control)
Summary of the method: as §3

oat, wild = assay type: in vivo, Avena fatua; details: for Plant response rating (scale of 0 to 100 where 0 is no effect and 100 is complete control), Oat, Wild: Postemergence, 31 g ai/ha, visually evaluated after 13 to 15 days; for Oat, Wild plant response rating / Plant response rating, Oat, Wild: postemergence; for Oat, Wild plant response rating: 62 g ai/ha, scale 0 to 100
Excerpt: as §1, §2

velvetleaf = assay type: in vivo, Abutilon theophrasti; details: postemergence; for Plant response rating, Velvetleaf: 250 g ai/ha, scale 0 to 100 (0 no effect, 100 complete control); for Velvetleaf plant response rating: scale 0 to 100
Excerpt: as §1, §2

blackgrass = assay type: in vivo, Alopecurus myosuroides; details: for Plant response rating (scale of 0 to 100 where 0 is no effect and 100 is complete control), Blackgrass: Postemergence, 31 g ai/ha, visually evaluated after 13 to 15 days; for Blackgrass plant response rating / Plant response rating, Blackgrass: postemergence; for Blackgrass plant response rating: 62 g ai/ha, scale 0 to 100
Excerpt: as §1, §2

lambsquarters = assay type: in vivo, Chenopodium album; details: for Plant response rating (scale of 0 to 100 where 0 is no effect and 100 is complete control), Lambsquarters: Postemergence, 31 g ai/ha, visually evaluated after 13 to 15 days; for Lambsquarters plant response rating / Plant response rating, Lambsquarters: postemergence; for Lambsquarters plant response rating: 62 g ai/ha, scale 0 to 100
Summary of the method: as §3

oilseed rape = assay type: in vivo, Brassica napus; details: postemergence; for Oilseed Rape plant response rating: 62 g ai/ha, scale 0 to 100
Summary of the method: as §3

foxtail, giant = assay type: in vivo, Setaria faberii; details: for Plant response rating (scale of 0 to 100 where 0 is no effect and 100 is complete control), Foxtail, Giant: Postemergence, 31 g ai/ha, visually evaluated after 13 to 15 days; for Foxtail, Giant plant response rating / Plant response rating, Foxtail, Giant: postemergence; for Foxtail, Giant plant response rating: 62 g ai/ha, scale 0 to 100
Excerpt: as §1, §2

galium = assay type: in vivo, Galium aparine; details: for Plant response rating (scale of 0 to 100 where 0 is no effect and 100 is complete control), Galium: Postemergence, 31 g ai/ha, visually evaluated after 13 to 15 days; for Galium plant response rating / Plant response rating, Galium: postemergence; for Galium plant response rating: 62 g ai/ha, scale 0 to 100
Excerpt: as §1, §2

morningglory = assay type: in vivo, Ipomoea coccinea; details: for Plant response rating (scale of 0 to 100 where 0 is no effect and 100 is complete control), Morningglory: Postemergence, 31 g ai/ha, visually evaluated after 13 to 15 days; for Morningglory plant response rating / Plant response rating, Morningglory: postemergence; for Morningglory plant response rating: 62 g ai/ha, scale 0 to 100
Excerpt: as §1, §2

nutsedge, yellow = assay type: in vivo, Cyperus esculentus; details: for Plant response rating (scale of 0 to 100 where 0 is no effect and 100 is complete control), Nutsedge, Yellow: Postemergence, 31 g ai/ha, visually evaluated after 13 to 15 days; for Nutsedge, Yellow plant response rating / Plant response rating, Nutsedge, Yellow: postemergence; for Nutsedge, Yellow plant response rating: 62 g ai/ha, scale 0 to 100
Summary of the method: as §3

crabgrass, large = assay type: in vivo, Digitaria sanguinalis; details: for Plant response rating (scale of 0 to 100 where 0 is no effect and 100 is complete control), Crabgrass, Large: Postemergence, 31 g ai/ha, visually evaluated after 13 to 15 days; for Crabgrass, Large plant response rating / Plant response rating, Crabgrass, Large: postemergence; for Crabgrass, Large plant response rating: 62 g ai/ha, scale 0 to 100
Summary of the method: as §3

[1] = 250 g ai/ha, scale 0 to 100 (0 no effect, 100 complete control)
[2] = 125 g ai/ha, scale 0 to 100, 0 no effect, 100 complete control

## Cc1cc(C(=O)NC(C)C)nn1Cc1ccnc(C(F)(F)F)c1 [Compound 197]
barnyardgrass
  Plant response rating (scale of 0 to 100 where 0 is no effect and 100 is complete control), Barnyardgrass: 0
  Barnyardgrass plant response rating: 0
barnyardgrass; [1]
  Plant response rating, Barnyardgrass: 10
barnyardgrass; [2]
  Plant response rating, Barnyardgrass: 5
ryegrass, Italian; [1]
  Plant response rating, Ryegrass, Italian: 5
ryegrass, Italian; [2]
  Plant response rating, Ryegrass, Italian: 0
kochia
  Plant response rating (scale of 0 to 100 where 0 is no effect and 100 is complete control), Kochia: 40
  Kochia plant response rating: 60
kochia; [1]
  Plant response rating, Kochia: 90
kochia; [2]
  Plant response rating, Kochia: 85
waterhemp
  Plant response rating, Waterhemp: 55
oat, wild
  Plant response rating (scale of 0 to 100 where 0 is no effect and 100 is complete control), Oat, Wild: 0
  Oat, Wild plant response rating: 0
oat, wild; [1]
  Plant response rating, Oat, Wild: 5
oat, wild; [2]
  Plant response rating, Oat, Wild: 5
velvetleaf
  Plant response rating, Velvetleaf: 40
  Velvetleaf plant response rating: 40
blackgrass
  Plant response rating (scale of 0 to 100 where 0 is no effect and 100 is complete control), Blackgrass: 0
  Blackgrass plant response rating: 0
blackgrass; [1]
  Plant response rating, Blackgrass: 15
blackgrass; [2]
  Plant response rating, Blackgrass: 5
lambsquarters
  Plant response rating (scale of 0 to 100 where 0 is no effect and 100 is complete control), Lambsquarters: 55
  Lambsquarters plant response rating: 55
lambsquarters; [1]
  Plant response rating, Lambsquarters: 85
lambsquarters; [2]
  Plant response rating, Lambsquarters: 60
Oilseed rape
  Oilseed Rape plant response rating: 5
Oilseed rape; [1]
  Plant response rating, Oilseed Rape: 10
Oilseed rape; [2]
  Plant response rating, Oilseed Rape: 20
foxtail, giant
  Plant response rating (scale of 0 to 100 where 0 is no effect and 100 is complete control), Foxtail, Giant: 0
  Foxtail, Giant plant response rating: 0
foxtail, giant; [1]
  Plant response rating, Foxtail, Giant: 10
foxtail, giant; [2]
  Plant response rating, Foxtail, Giant: 5
galium
  Plant response rating (scale of 0 to 100 where 0 is no effect and 100 is complete control), Galium: 40
  Galium plant response rating: 50
galium; [1]
  Plant response rating, Galium: 85
galium; [2]
  Plant response rating, Galium: 50
morningglory
  Plant response rating (scale of 0 to 100 where 0 is no effect and 100 is complete control), Morningglory: 75
  Morningglory plant response rating: 75
morningglory; [1]
  Plant response rating, Morningglory: 98
morningglory; [2]
  Plant response rating, Morningglory: 65
nutsedge, yellow
  Plant response rating (scale of 0 to 100 where 0 is no effect and 100 is complete control), Nutsedge, Yellow: 0
  Nutsedge, Yellow plant response rating: 5
nutsedge, yellow; [1]
  Plant response rating, Nutsedge, Yellow: 5
nutsedge, yellow; [2]
  Plant response rating, Nutsedge, Yellow: 10
crabgrass, large
  Plant response rating (scale of 0 to 100 where 0 is no effect and 100 is complete control), Crabgrass, Large: 5
  Crabgrass, Large plant response rating: 5
crabgrass, large; [1]
  Plant response rating, Crabgrass, Large: 15
crabgrass, large; [2]
  Plant response rating, Crabgrass, Large: 10

## CCCNC(=O)c1cc(CCC)n(Cc2cc(C(F)(F)F)nn2C)n1 [Compound 198]
barnyardgrass
  Plant response rating (scale of 0 to 100 where 0 is no effect and 100 is complete control), Barnyardgrass: 5
  Barnyardgrass plant response rating: 15
barnyardgrass; [1]
  Plant response rating, Barnyardgrass: 35
barnyardgrass; [2]
  Plant response rating, Barnyardgrass: 15
ryegrass, Italian; [1]
  Plant response rating, Ryegrass, Italian: 5
ryegrass, Italian; [2]
  Plant response rating, Ryegrass, Italian: 5
kochia
  Plant response rating (scale of 0 to 100 where 0 is no effect and 100 is complete control), Kochia: 80
  Kochia plant response rating: 80
kochia; [1]
  Plant response rating, Kochia: 90
kochia; [2]
  Plant response rating, Kochia: 85
waterhemp
  Plant response rating, Waterhemp: 90
oat, wild
  Plant response rating (scale of 0 to 100 where 0 is no effect and 100 is complete control), Oat, Wild: 10
  Oat, Wild plant response rating: 10
oat, wild; [1]
  Plant response rating, Oat, Wild: 45
oat, wild; [2]
  Plant response rating, Oat, Wild: 20
velvetleaf
  Plant response rating, Velvetleaf: 50
  Velvetleaf plant response rating: 40
blackgrass
  Plant response rating (scale of 0 to 100 where 0 is no effect and 100 is complete control), Blackgrass: 0
  Blackgrass plant response rating: 20
blackgrass; [1]
  Plant response rating, Blackgrass: 30
blackgrass; [2]
  Plant response rating, Blackgrass: 40
lambsquarters
  Plant response rating (scale of 0 to 100 where 0 is no effect and 100 is complete control), Lambsquarters: 20
  Lambsquarters plant response rating: 50
lambsquarters; [1]
  Plant response rating, Lambsquarters: 85
lambsquarters; [2]
  Plant response rating, Lambsquarters: 75
Oilseed rape
  Oilseed Rape plant response rating: 50
Oilseed rape; [1]
  Plant response rating, Oilseed Rape: 60
Oilseed rape; [2]
  Plant response rating, Oilseed Rape: 70
foxtail, giant
  Plant response rating (scale of 0 to 100 where 0 is no effect and 100 is complete control), Foxtail, Giant: 10
  Foxtail, Giant plant response rating: 10
foxtail, giant; [1]
  Plant response rating, Foxtail, Giant: 55
foxtail, giant; [2]
  Plant response rating, Foxtail, Giant: 15
galium
  Plant response rating (scale of 0 to 100 where 0 is no effect and 100 is complete control), Galium: 50
  Galium plant response rating: 85
galium; [1]
  Plant response rating, Galium: 90
galium; [2]
  Plant response rating, Galium: 85
morningglory
  Plant response rating (scale of 0 to 100 where 0 is no effect and 100 is complete control), Morningglory: 95
  Morningglory plant response rating: 60
morningglory; [1]
  Plant response rating, Morningglory: 98
morningglory; [2]
  Plant response rating, Morningglory: 98
nutsedge, yellow
  Plant response rating (scale of 0 to 100 where 0 is no effect and 100 is complete control), Nutsedge, Yellow: 5
  Nutsedge, Yellow plant response rating: 10
nutsedge, yellow; [1]
  Plant response rating, Nutsedge, Yellow: 5
nutsedge, yellow; [2]
  Plant response rating, Nutsedge, Yellow: 5
crabgrass, large
  Plant response rating (scale of 0 to 100 where 0 is no effect and 100 is complete control), Crabgrass, Large: 5
  Crabgrass, Large plant response rating: 5
crabgrass, large; [1]
  Plant response rating, Crabgrass, Large: 30
crabgrass, large; [2]
  Plant response rating, Crabgrass, Large: 15
